Test results: patent publication US20090312367A1, “COMBINATION OF MODAFINIL AND AN ANTAGONIST OR INVERSE AGONIST OF THE H3 RECEPTOR” (Bioprojet, priority 2006, published 2009)

Tested on: cats with MPTP-induced parkinsonism
Test: Parkinson's disease model: wakefulness in cats with MPTP-induced parkinsonism
Assay type: in vivo
Conditions: MPTP-treated cats displaying sleepiness
Source text: The inventors also investigated the combination of 1-{3-[3-(4-chlorophenyl)propoxy]propyl}piperidine and modafinil on wakefulness in cats with MPTP-induced parkinsonism. MPTP is a neurotoxin which selectively destroys dopaminergic neurons in the mesencephalon. MPTP-treated animals display sleepiness similar to that seen in many patients.

Compound: NC(=O)C[S+]([O-])C(c1ccccc1)c1ccccc1 (stereo not shown) [modafinil, 2-benzhydrylsulfinylthanamide]
- wakefulness: only a modest improvement in wakefulness
